From publication PMC3845358 (Journal of immunology (Baltimore, Md. : 1950), 2013)
≈ marks a conversion by molar mass, not a printed value.

Assays:
[1] = system: Human peripheral blood mononuclear (PBMC) cells; experiment: LPS-stimulated cytokine release from PBMC; assay type: cell-based; conditions: 16 h
[2] = target: T1, Fbxo3 (Homo sapiens, UniProt Q9UK99); experiment: Fbxo3/Fbxl2 protein interaction pull-down assay; assay type: binding; conditions: Fbxo3 beads from Hela cell lysates, 10^−11 to 10^−4 M tested
T1 sequence (Q9UK99 1-471): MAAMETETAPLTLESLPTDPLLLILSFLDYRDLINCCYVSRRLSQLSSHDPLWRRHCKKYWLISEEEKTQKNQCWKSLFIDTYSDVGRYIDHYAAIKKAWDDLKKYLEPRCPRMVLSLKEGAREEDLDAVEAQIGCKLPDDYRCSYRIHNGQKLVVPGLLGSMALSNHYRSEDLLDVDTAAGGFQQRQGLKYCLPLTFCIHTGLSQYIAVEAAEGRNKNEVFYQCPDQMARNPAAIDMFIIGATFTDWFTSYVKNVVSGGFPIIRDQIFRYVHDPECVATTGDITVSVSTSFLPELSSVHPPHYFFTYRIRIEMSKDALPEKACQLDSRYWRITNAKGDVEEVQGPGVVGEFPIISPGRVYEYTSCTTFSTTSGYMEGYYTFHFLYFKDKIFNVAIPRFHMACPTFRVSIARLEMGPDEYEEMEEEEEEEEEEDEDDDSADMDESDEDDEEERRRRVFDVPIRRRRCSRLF

[3] = target: SCF^Fbxo3 (Homo sapiens, UniProt Q9UK99); experiment: In vitro ubiquitin conjugation assay of Fbxl2; assay type: biochemical
Sequence of SCF^Fbxo3 (Q13616 whole entry partner, one chain of several): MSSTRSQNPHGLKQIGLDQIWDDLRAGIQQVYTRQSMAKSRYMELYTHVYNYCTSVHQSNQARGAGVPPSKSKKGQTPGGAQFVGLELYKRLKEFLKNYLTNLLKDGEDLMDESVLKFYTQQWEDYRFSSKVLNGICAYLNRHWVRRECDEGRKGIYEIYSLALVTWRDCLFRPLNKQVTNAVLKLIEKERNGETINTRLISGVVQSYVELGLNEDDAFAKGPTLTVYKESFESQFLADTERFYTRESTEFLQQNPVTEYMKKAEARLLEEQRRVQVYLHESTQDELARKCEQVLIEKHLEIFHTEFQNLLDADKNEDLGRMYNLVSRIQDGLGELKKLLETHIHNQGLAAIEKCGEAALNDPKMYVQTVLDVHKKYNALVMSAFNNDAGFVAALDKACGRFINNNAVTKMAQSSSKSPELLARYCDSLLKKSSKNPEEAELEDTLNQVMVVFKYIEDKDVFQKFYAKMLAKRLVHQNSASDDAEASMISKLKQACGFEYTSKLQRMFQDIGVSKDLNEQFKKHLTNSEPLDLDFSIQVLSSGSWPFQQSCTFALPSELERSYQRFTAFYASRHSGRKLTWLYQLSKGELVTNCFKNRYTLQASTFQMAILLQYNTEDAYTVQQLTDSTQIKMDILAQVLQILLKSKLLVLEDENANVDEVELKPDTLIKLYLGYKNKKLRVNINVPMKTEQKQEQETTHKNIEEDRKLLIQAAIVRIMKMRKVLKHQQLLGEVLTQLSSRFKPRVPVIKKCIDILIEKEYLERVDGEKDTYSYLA
Sequence of SCF^Fbxo3 (P63208 whole entry partner, one chain of several): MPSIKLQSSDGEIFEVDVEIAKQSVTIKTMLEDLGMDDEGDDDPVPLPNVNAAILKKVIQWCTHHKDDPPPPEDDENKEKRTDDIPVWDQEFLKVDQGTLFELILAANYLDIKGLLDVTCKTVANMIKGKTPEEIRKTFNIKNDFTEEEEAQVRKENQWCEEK
Sequence of SCF^Fbxo3 (P62877 whole entry partner, one chain of several): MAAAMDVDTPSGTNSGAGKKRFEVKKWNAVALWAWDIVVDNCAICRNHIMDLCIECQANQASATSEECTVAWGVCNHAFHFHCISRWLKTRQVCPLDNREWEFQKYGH

[4] = target: T2, COX-2 (Mus musculus, UniProt Q05769); experiment: COX-2 activity and COX-2 levels in MLE cells; assay type: cell-based, murine; conditions: 16 h
T2 sequence (Q05769 18-604): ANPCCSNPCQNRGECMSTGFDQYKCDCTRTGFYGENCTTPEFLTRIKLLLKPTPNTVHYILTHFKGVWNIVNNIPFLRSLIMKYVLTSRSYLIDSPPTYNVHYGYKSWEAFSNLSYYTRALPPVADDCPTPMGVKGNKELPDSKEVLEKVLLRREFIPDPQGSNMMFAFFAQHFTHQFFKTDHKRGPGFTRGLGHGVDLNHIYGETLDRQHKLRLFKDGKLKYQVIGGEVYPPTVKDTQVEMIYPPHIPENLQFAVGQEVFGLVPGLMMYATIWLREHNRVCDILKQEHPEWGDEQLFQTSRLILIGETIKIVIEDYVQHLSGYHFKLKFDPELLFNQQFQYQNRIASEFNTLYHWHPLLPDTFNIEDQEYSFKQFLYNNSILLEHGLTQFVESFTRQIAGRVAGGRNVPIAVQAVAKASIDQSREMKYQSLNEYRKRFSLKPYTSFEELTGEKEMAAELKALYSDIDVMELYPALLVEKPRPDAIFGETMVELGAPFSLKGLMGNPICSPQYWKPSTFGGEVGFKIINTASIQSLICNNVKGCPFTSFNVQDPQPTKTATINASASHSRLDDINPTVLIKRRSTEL

[5] = system: LPS-treated PBMC; experiment: Cytokine array of LPS-treated PBMC; assay type: cell-based, human; conditions: 10 µg/ml, LPS 2 µg/ml, 16 h
[6] = system: carrageenan-treated C57BL6 mice; experiment: Carrageenan paw edema model; assay type: in vivo, mouse; conditions: 100 µg i.p. daily, 48 h, versus vehicle
[7] = system: C57BL6 mice challenged with H1N1 (A/PR/8/34); experiment: H1N1 influenza pneumonia model; assay type: in vivo, mouse; conditions: 30 µg/ml in drinking water
[8] = system: C57BL6 mice fed dextran sulfate sodium (DSS); experiment: DSS-induced colitis model; assay type: in vivo, mouse; conditions: 100 µg i.p. daily
[9] = system: C57BL6 mice given TPA on ears; experiment: TPA-induced ear edema model; assay type: in vivo, mouse; conditions: topical 8, 40, 200 ug/ear, 18 h after TPA, versus vehicle
[10] = system: bacterial growth; experiment: Kirby Bauer testing of bacterial growth; conditions: data not shown
[11] = Observation of treated animals across the inflammation models; assay type: in vivo, mouse; conditions: parenteral, oral, topical application
[12] = target: COX-1 (Homo sapiens, UniProt P23219); experiment: Purified enzyme activity assay, COX-1; conditions: 10 µM, purified protein
Sequence of COX-1 (P23219 24-599): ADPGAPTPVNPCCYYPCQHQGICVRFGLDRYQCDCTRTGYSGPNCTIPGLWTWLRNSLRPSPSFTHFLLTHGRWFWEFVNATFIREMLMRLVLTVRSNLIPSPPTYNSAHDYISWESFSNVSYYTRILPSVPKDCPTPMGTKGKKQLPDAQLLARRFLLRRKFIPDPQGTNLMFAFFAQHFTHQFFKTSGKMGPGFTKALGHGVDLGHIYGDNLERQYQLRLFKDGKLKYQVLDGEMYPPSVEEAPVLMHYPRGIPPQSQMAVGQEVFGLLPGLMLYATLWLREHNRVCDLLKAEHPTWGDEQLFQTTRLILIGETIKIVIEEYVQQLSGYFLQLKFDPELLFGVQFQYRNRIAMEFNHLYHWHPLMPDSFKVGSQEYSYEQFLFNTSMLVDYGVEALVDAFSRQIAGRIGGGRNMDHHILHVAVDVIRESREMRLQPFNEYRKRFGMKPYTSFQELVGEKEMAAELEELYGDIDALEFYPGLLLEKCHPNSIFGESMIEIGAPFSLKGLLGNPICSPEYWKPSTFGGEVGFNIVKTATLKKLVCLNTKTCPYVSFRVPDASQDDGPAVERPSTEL

[13] = target: T3, COX-2 (Homo sapiens, UniProt P35354); experiment: Purified enzyme activity assay, COX-2; conditions: 10 µM, purified protein
T3 sequence (P35354 18-604): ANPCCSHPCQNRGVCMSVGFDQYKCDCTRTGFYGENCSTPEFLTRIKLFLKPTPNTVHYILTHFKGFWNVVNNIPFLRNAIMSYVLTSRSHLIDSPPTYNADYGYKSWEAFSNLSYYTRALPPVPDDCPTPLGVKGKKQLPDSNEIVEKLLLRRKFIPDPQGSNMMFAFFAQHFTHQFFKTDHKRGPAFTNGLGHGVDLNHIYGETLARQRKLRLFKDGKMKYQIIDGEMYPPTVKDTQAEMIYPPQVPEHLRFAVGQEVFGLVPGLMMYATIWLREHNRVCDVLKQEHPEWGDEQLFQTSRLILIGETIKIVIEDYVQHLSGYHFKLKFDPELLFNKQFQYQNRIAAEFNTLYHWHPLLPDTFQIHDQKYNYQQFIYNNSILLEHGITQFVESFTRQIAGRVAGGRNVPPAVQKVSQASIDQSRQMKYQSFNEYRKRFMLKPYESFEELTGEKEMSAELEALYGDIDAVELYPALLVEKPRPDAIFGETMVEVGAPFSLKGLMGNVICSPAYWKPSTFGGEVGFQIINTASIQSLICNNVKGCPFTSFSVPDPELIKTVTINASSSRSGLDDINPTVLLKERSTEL

[14] = system: LOX-1; experiment: Purified enzyme activity assay, LOX-1; conditions: 10 µM, purified protein
[15] = system: Murine lung epithelial (MLE) cells; experiment: Immunoblotting of Fbxl2, TRAFs and Fbxl2 substrates in MLE cells
[16] = system: TRAF 1–6 in MLE cells; experiment: TRAF protein half-life; conditions: different concentrations, 16 h
[17] = target: T1, Fbxo3; experiment: Reversibility of Fbxo3 inhibition by ultrafiltration and Fbxl2 pull-down; conditions: 1 mg/ml, one or three rounds of ultrafiltration (3 kDa cutoff)

With `c1ccc(-c2ccc(CNCCNCc3ccc(-c4ccccn4)cc3)cc2)nc1` [BC-1215] the IC50 ([1]; Homo sapiens, read-out: IC50 for IL-1β) was 0.9 mg/L (≈ 2.28 µM), the “concentration of maximal inhibitory binding (Fbxl2 pull-down by Fbxo3 beads)” value [2] was 10^−7 M and the IC50 [3] was 0.1 µM. The “COX-2 activity in cells” value ([4]; 10 µg/ml, positive control DuP-697) was “did not alter COX-2 activity”, the “immunoreactive COX-2 levels” value ([4]; different concentrations, immunoblotting) was “did not alter immunoreactive COX-2 levels” and the “release of Th1 panel cytokines” value [5] was “remarkably suppressed the majority of the Th1 panel cytokines”. The “paw edema (volume)” value [6] was “significantly reduce”, the paw thickness [6] was “significantly reduce” and the lavage cell counts [7] was “remarkably decreased”. The lavage protein concentration [7] was “remarkably decreased”, the lung compliance ([7]; day 5, FlexiVent) was “increased compliance” and the lung elastance ([7]; day 5, FlexiVent) was “reduced elastance”. The “pulmonary edema, hemorrhage and alveolar inflammation” value ([7]; gross images and H&E) was “lessened severity”, the survival ([7]; up to 9 d, versus diluent) was “significantly increased survival” and the colon length ([8]; 3.5% DSS five days, compared to control) was “no significant decrease in colon length”. The “TRAF protein levels in colon tissue” value ([8]; immunoblotting) was “significant reduction of immunoreactive TRAF2 and TRAF4 content”, the “IL1β level in colonic tissue” value ([8]; versus vehicle) was “large reduction” and the “TNFα level in colonic tissue” value ([8]; versus vehicle) was “large reduction”. For the same compound, the “colon histology (H&E and Alcian staining)” value ([8]; versus vehicle) was “significant restoration of colonic crypts with reappearance of goblet cells”, the ear thickness [9] was “significantly reduced” and the “ear weight (punch biopsy)” value [9] was “significantly reduced”. For the same compound, the “inhibition of bacterial growth” value [10] was “modest inhibition of bacterial growth”, the “overt signs of distress in treated animals” value [11] was “not observed to exhibit overt signs of distress” and the “inhibition of COX-1 enzymatic activity” value [12] was “does not cause significant inhibitory effects”. The “inhibition of COX-2 enzymatic activity” value [13] was “does not cause significant inhibitory effects”, the “inhibition of LOX-1 enzymatic activity” value [14] was “does not cause significant inhibitory effects” and the “TNFα-induced TRAF2/TRAF3 up-regulation and p38, p-IKK activation” value ([15]; MLE cells co-treated with TNFα 10 ng/ml, 6 h) was “suppress such effects in a dose-dependent manner”. The “levels of Fbxl2 substrates cyclin D2, cyclin D3 and CCT” value ([15]; MLE cells, 16 h, immunoblotting) was “reduced”, the “immunoreactive Fbxl2 and TRAF protein levels” value ([15]; cells, range of concentrations, compared to benzathine control) was “increased immunoreactive Fbxl2 levels and reduced TRAF proteins” and the “TRAF steady-state mRNA levels” value [16] was “without altering TRAF steady-state mRNA levels”. For the same compound, the “reversibility of Fbxo3 inhibition” value [17] was “reversible”.

In the case of `c1ccc(CNCCNCc2ccccc2)cc1` [benzathine, reference compound], the “IC50 for IL-1β” value ([1]; LPS 2 µg/ml, ELISA) is reported as 25 mg/L.
